Test results as given in patent US20120040906A1, “PROTEIN TARGETS IN DISEASE” (NATIONAL UNIVERSITY OF IRELAND, GALWAY, priority 2009, published 2012).

Key:
H9c2 cardiomyocytes [1] = experiment: real-time RT-PCR confirmation of microRNA expression during ER stress; type: cell-based, Rat; details: Tg 1 μM or Tm 1 μg/ml, 24 hours; for mir-7a expression, Real-time PCR (set I) / mir-18a expression, Real-time PCR (set I) / mir-20a expression, Real-time PCR (set I) / mir-24 expression, Real-time PCR (set I) / mir-25 expression, Real-time PCR (set I) / mir-93 expression, Real-time PCR (set I) / mir-98 expression, Real-time PCR (set I) / mir-103 expression, Real-time PCR (set I) / mir-106b expression, Real-time PCR (set I) / mir-107 expression, Real-time PCR (set I) / mir-133a expression, Real-time PCR (set I) / mir-133b expression, Real-time PCR (set I) / mir-206 expression, Real-time PCR (set I) / mir-322 expression, Real-time PCR (set I) / mir-351 expression, Real-time PCR (set I): untreated control = 1.000, set I; for mir-7a expression, Real-time PCR (set II) / mir-18a expression, Real-time PCR (set II) / mir-20a expression, Real-time PCR (set II) / mir-24 expression, Real-time PCR (set II) / mir-25 expression, Real-time PCR (set II) / mir-93 expression, Real-time PCR (set II) / mir-98 expression, Real-time PCR (set II) / mir-103 expression, Real-time PCR (set II) / mir-106b expression, Real-time PCR (set II) / mir-107 expression, Real-time PCR (set II) / mir-133a expression, Real-time PCR (set II) / mir-133b expression, Real-time PCR (set II) / mir-206 expression, Real-time PCR (set II) / mir-322 expression, Real-time PCR (set II) / mir-351 expression, Real-time PCR (set II): untreated control = 1.000, set II
Description: Expression of muscle specific microRNAs; mir-206, mir-133a and mir-133b and several members of mir-17-92 oncogenic cluster were repressed during conditions of ER stress. Based on their differential expression profile during ER stress and their hitherto unexplored role in cardiovascular biology mir-7a, mir-351 and mir-322 were identified as primary microRNA targets in conditions of ER stress. In addition, the invention has been extended to the human ortholog, miR-125, of rat miR-351. Similarly, the invention extends to the human ortholog, miR-424, of rat miR-322. […], and hsa-miR-424 & rno-miR-322 are microRNAs having similar seed sequences in humans and rats respectively.
(§1) Control, Untreated; Tg, thapsigargin (1 μM) for 24 hours, Tm, tunicamycin (1 μg/ml) for 24 hours. mir-7a, mir-351 and mir-322 are shown in bold face.

H9c2 cardiomyocytes [2] = experiment: microarray analysis of microRNA expression during ER stress; type: cell-based, Rat; details: Tg 1 μM or Tm 1 μg/ml, 24 hours, untreated control = 1.000
Method: (§2) Expression profiling of microRNAs during the conditions of Endoplasmic Reticulum (ER) stress in cardiomyocytes was performed. ER stress was induced by treatment with either thapsigargin, an inhibitor of the Sacroplasmic/Endoplasmic Reticulum Ca2+ATPase (SERCA) pump or tunicamycin (an inhibitor of N-linked glycosylation). RNA was isolated from three independent experiments where H9c2 cells were treated with thapsigargin (Tg) or tunicamycin (Tm) for 24 hours. RNAs from Tg and Tm treated cells were checked for induction of key ER resident chaperone Grp78/BiP by RT-PCR. Grp78/BiP is a central regulator of ER homeostasis due to its multiple functional roles in protein folding, ER calcium binding, and controlling of the activation of transmembrane ER stress sensors. […] Total RNA was isolated from H9c2 cells treated with 1 μM Tg, 1 μg/ml Tm for 24 hr and the expression levels of the indicated genes were analysed by RT-PCR.
Next equal amounts of RNAs from each experiment were pooled and used for microarray analysis to minimize experimental variations. The experimental outline for the microarray analysis is illustrated in FIG. 2. The chips were spotted with 350 mature microRNAs of Rat as per Sanger miRBase database (Release 11.0). Each microRNA was spotted on the array nine times and for each RNA sample two chips were used. There were 16 sets of control probes on each array. There were greater than 10 positive controls (spike-in controls & 5S). There were greater than 10 negative controls (mismatch control). A 20-mer control RNA is spiked into each sample followed by labeling and hybridization. The control RNA had been computationally and experimentally verified not to cross-hybridize with the probes of any known microRNA transcript. The background-subtracted signals were used for statistical tests and clustering analysis.
as §1

H9c2 cells = experiment: RT-PCR for induction of Grp78/BiP; type: cell-based; details: 1 μM Tg, 1 μg/ml Tm for 24 hr, three independent experiments
Method: as §2

C/C=C(/C)C(=O)O[C@H]1C(C)=C2[C@H]([C@@H]1OC(=O)CCCCCCC)[C@@](C)(OC(C)=O)C[C@H](OC(=O)CCC)[C@@]1(O)[C@H]2OC(=O)[C@@]1(C)O [Tg, thapsigargin]
mir-7a expression, Real-time PCR (set I) (H9c2 cardiomyocytes [1]): 1.540
mir-18a expression, Real-time PCR (set I) (H9c2 cardiomyocytes [1]): 0.720
mir-20a expression, Real-time PCR (set I) (H9c2 cardiomyocytes [1]): 0.930
mir-24 expression, Real-time PCR (set I) (H9c2 cardiomyocytes [1]): 0.810
mir-25 expression, Real-time PCR (set I) (H9c2 cardiomyocytes [1]): 0.790
mir-93 expression, Real-time PCR (set I) (H9c2 cardiomyocytes [1]): 0.660
mir-98 expression, Real-time PCR (set I) (H9c2 cardiomyocytes [1]): 1.470
mir-103 expression, Real-time PCR (set I) (H9c2 cardiomyocytes [1]): 0.860
mir-106b expression, Real-time PCR (set I) (H9c2 cardiomyocytes [1]): 0.820
mir-107 expression, Real-time PCR (set I) (H9c2 cardiomyocytes [1]): 0.580
mir-133a expression, Real-time PCR (set I) (H9c2 cardiomyocytes [1]): 0.720
mir-133b expression, Real-time PCR (set I) (H9c2 cardiomyocytes [1]): 0.470
mir-206 expression, Real-time PCR (set I) (H9c2 cardiomyocytes [1]): 0.540
mir-322 expression, Real-time PCR (set I) (H9c2 cardiomyocytes [1]): 0.830
mir-351 expression, Real-time PCR (set I) (H9c2 cardiomyocytes [1]): 0.210
mir-7a expression, Real-time PCR (set II) (H9c2 cardiomyocytes [1]): 3.800
mir-18a expression, Real-time PCR (set II) (H9c2 cardiomyocytes [1]): 0.700
mir-20a expression, Real-time PCR (set II) (H9c2 cardiomyocytes [1]): 0.620
mir-24 expression, Real-time PCR (set II) (H9c2 cardiomyocytes [1]): 0.870
mir-25 expression, Real-time PCR (set II) (H9c2 cardiomyocytes [1]): 0.799
mir-93 expression, Real-time PCR (set II) (H9c2 cardiomyocytes [1]): 0.530
mir-98 expression, Real-time PCR (set II) (H9c2 cardiomyocytes [1]): 0.850
mir-103 expression, Real-time PCR (set II) (H9c2 cardiomyocytes [1]): 0.590
mir-106b expression, Real-time PCR (set II) (H9c2 cardiomyocytes [1]): 0.800
mir-107 expression, Real-time PCR (set II) (H9c2 cardiomyocytes [1]): 0.800
mir-133a expression, Real-time PCR (set II) (H9c2 cardiomyocytes [1]): 1.140
mir-133b expression, Real-time PCR (set II) (H9c2 cardiomyocytes [1]): 0.680
mir-206 expression, Real-time PCR (set II) (H9c2 cardiomyocytes [1]): 0.820
mir-322 expression, Real-time PCR (set II) (H9c2 cardiomyocytes [1]): 0.690
mir-351 expression, Real-time PCR (set II) (H9c2 cardiomyocytes [1]): 0.210
mir-7a expression, Microarray Analysis (H9c2 cardiomyocytes [2]): 1.341
mir-18a expression, Microarray Analysis (H9c2 cardiomyocytes [2]): 0.426
mir-20a expression, Microarray Analysis (H9c2 cardiomyocytes [2]): 0.770
mir-24 expression, Microarray Analysis (H9c2 cardiomyocytes [2]): 0.664
mir-25 expression, Microarray Analysis (H9c2 cardiomyocytes [2]): 0.633
mir-93 expression, Microarray Analysis (H9c2 cardiomyocytes [2]): 0.583
mir-98 expression, Microarray Analysis (H9c2 cardiomyocytes [2]): 3.822
mir-103 expression, Microarray Analysis (H9c2 cardiomyocytes [2]): 0.654
mir-106b expression, Microarray Analysis (H9c2 cardiomyocytes [2]): 0.638
mir-107 expression, Microarray Analysis (H9c2 cardiomyocytes [2]): 0.682
mir-133a expression, Microarray Analysis (H9c2 cardiomyocytes [2]): 0.595
mir-133b expression, Microarray Analysis (H9c2 cardiomyocytes [2]): 0.565
mir-206 expression, Microarray Analysis (H9c2 cardiomyocytes [2]): 0.683
mir-322 expression, Microarray Analysis (H9c2 cardiomyocytes [2]): 0.094
mir-351 expression, Microarray Analysis (H9c2 cardiomyocytes [2]): 0.141
induction of ER resident chaperone Grp78/BiP by RT-PCR (H9c2 cells): induction of Grp78/BiP in all three experiments

tunicamycin [Tm]
mir-7a expression, Real-time PCR (set I) (H9c2 cardiomyocytes [1]): 1.140
mir-18a expression, Real-time PCR (set I) (H9c2 cardiomyocytes [1]): 1.090
mir-20a expression, Real-time PCR (set I) (H9c2 cardiomyocytes [1]): 1.340
mir-24 expression, Real-time PCR (set I) (H9c2 cardiomyocytes [1]): 0.930
mir-25 expression, Real-time PCR (set I) (H9c2 cardiomyocytes [1]): 0.906
mir-93 expression, Real-time PCR (set I) (H9c2 cardiomyocytes [1]): 0.800
mir-98 expression, Real-time PCR (set I) (H9c2 cardiomyocytes [1]): 1.480
mir-103 expression, Real-time PCR (set I) (H9c2 cardiomyocytes [1]): 0.960
mir-106b expression, Real-time PCR (set I) (H9c2 cardiomyocytes [1]): 1.060
mir-107 expression, Real-time PCR (set I) (H9c2 cardiomyocytes [1]): 0.590
mir-133a expression, Real-time PCR (set I) (H9c2 cardiomyocytes [1]): 0.750
mir-133b expression, Real-time PCR (set I) (H9c2 cardiomyocytes [1]): 0.480
mir-206 expression, Real-time PCR (set I) (H9c2 cardiomyocytes [1]): 0.570
mir-322 expression, Real-time PCR (set I) (H9c2 cardiomyocytes [1]): 0.840
mir-351 expression, Real-time PCR (set I) (H9c2 cardiomyocytes [1]): 0.290
mir-7a expression, Real-time PCR (set II) (H9c2 cardiomyocytes [1]): 1.650
mir-18a expression, Real-time PCR (set II) (H9c2 cardiomyocytes [1]): 0.640
mir-20a expression, Real-time PCR (set II) (H9c2 cardiomyocytes [1]): 0.650
mir-24 expression, Real-time PCR (set II) (H9c2 cardiomyocytes [1]): 0.760
mir-25 expression, Real-time PCR (set II) (H9c2 cardiomyocytes [1]): 0.760
mir-93 expression, Real-time PCR (set II) (H9c2 cardiomyocytes [1]): 0.550
mir-98 expression, Real-time PCR (set II) (H9c2 cardiomyocytes [1]): 0.750
mir-103 expression, Real-time PCR (set II) (H9c2 cardiomyocytes [1]): 0.500
mir-106b expression, Real-time PCR (set II) (H9c2 cardiomyocytes [1]): 0.737
mir-107 expression, Real-time PCR (set II) (H9c2 cardiomyocytes [1]): 0.630
mir-133a expression, Real-time PCR (set II) (H9c2 cardiomyocytes [1]): 0.730
mir-133b expression, Real-time PCR (set II) (H9c2 cardiomyocytes [1]): 0.510
mir-206 expression, Real-time PCR (set II) (H9c2 cardiomyocytes [1]): 0.604
mir-322 expression, Real-time PCR (set II) (H9c2 cardiomyocytes [1]): 0.610
mir-351 expression, Real-time PCR (set II) (H9c2 cardiomyocytes [1]): 0.230
mir-7a expression, Microarray Analysis (H9c2 cardiomyocytes [2]): 2.458
mir-18a expression, Microarray Analysis (H9c2 cardiomyocytes [2]): 0.550
mir-20a expression, Microarray Analysis (H9c2 cardiomyocytes [2]): 0.791
mir-24 expression, Microarray Analysis (H9c2 cardiomyocytes [2]): 0.672
mir-25 expression, Microarray Analysis (H9c2 cardiomyocytes [2]): 0.771
mir-93 expression, Microarray Analysis (H9c2 cardiomyocytes [2]): 0.524
mir-98 expression, Microarray Analysis (H9c2 cardiomyocytes [2]): 4.921
mir-103 expression, Microarray Analysis (H9c2 cardiomyocytes [2]): 0.571
mir-106b expression, Microarray Analysis (H9c2 cardiomyocytes [2]): 0.672
mir-107 expression, Microarray Analysis (H9c2 cardiomyocytes [2]): 0.601
mir-133a expression, Microarray Analysis (H9c2 cardiomyocytes [2]): 0.690
mir-133b expression, Microarray Analysis (H9c2 cardiomyocytes [2]): 0.641
mir-206 expression, Microarray Analysis (H9c2 cardiomyocytes [2]): 0.607
mir-322 expression, Microarray Analysis (H9c2 cardiomyocytes [2]): 0.113
mir-351 expression, Microarray Analysis (H9c2 cardiomyocytes [2]): 0.179
induction of ER resident chaperone Grp78/BiP by RT-PCR (H9c2 cells): induction of Grp78/BiP in all three experiments
